{"source": "patent US11266768B2", "about": "“Stretch release drug delivery materials” (TRUSTEES OF BOSTON UNIVERSITY, priority 2013, dated 2022)", "key": {"[1]": {"assay": "Strain-modulated release of SN-38 from mechanoresponsive drug delivery device (fluorimetry)", "assay_type": "physicochemical", "details": "for release of SN-38 from device: PBS or RPMI with 10% v/v fetal bovine serum", "experimental": "SN-38 from release media was quantified by mixing one (1) part release medium (containing drug) in three (3) parts 20 mM borate buffer (pH=9), which converts SN-38 to the carboxylate form. Fluorescence was detected by fluorimetry at an excitation of 380 nm and emission of 550 nm, as previously described (Yohe, J Controlled Release 2012, 162). (FIG. 42)\nA drug delivery device with incorporated SN-38 was fabricated in accordance with Example 2, above. The ends of the material were placed between two pieces of foam tape and further secured by applying glue to the ends in contact with the foam tape. The ends were then placed between the grips of a tensile tester machine (Instron 5848 Microtester) and the sample length between the grips was recorded. A water bath was placed under the sample arms, and the drug delivery device was submerged beneath 300 mL of phosphate-buffered saline (PBS) or cell media, RPMI with 10% v/v fetal bovine serum. A magnetic stir bar was also added to the bath to ensure thorough mixing during the study. The Instron software was then programmed to extend the sample arms at a constant rate of 2 mm/s until a travel distance equivalent to thirty percent of the initial sample length was reached (corresponding to 30% strain), or equivalent to the entire initial sample length was reached (corresponding to 100% strain). Once the device was stretched, aliquots of release medium were sampled at predetermined time points. The percentage of SN-38 released into the surrounding aqueous environment was calculated using fluorimetry, as described in Example 31. Devices were also placed on the tensile tester, but in this instance they were not stretched (0% strain), to serve as control experiments. Release of the chemotherapy agent from devices subjected to 100% strain and more moderate from devices subjected to 30% strain. […] (FIG. 43)"}, "OE33, oesophageal cancer": {"system": "OE33, oesophageal cancer", "assay": "OE33 cell viability with SN-38 release aliquots (MTS Assay)", "assay_type": "cell-based", "details": "release aliquots in RPMI with 10% fetal bovine serum incubated 96 hours", "text": "By altering the amount of strain, the rate of SN-38 release can be controlled in order to provide a range of concentrations at fixed time points. […] The concentration of SN-38 can be either lower or higher than the IC50 value such that a similar curve can be created using force and/or strain, rather than, or in addition to, concentration. […] Because SN-38 is a toxic chemotherapeutic drug, the amount of SN-38 released correlates with cell viability. […] (FIG. 44)"}, "[2]": {"assay": "Tension-triggered release of cisplatin from mechanoresponsive drug delivery device (atomic absorption)", "assay_type": "physicochemical", "details": "for release of cisplatin from device: PBS", "text": "The amount of cisplatin released from the drug delivery system into the surrounding aqueous environment was quantified through flameless atomic absorption spectroscopy (also known as graphite furnace atomic absorption or electrothermal absorption (Varian AA240Z Atomic Absorption)). The platinum atom has a strong absorbance band at 265.9 nm, and was used for detecting the presence of platinum (the major component of the anticancer agent cisplatin) in the release medium. A standard curve was first created, and aliquots (sampled at different timepoints) from the release medium with unknown cisplatin concentrations were determined from this standard curve. The concentration values were then converted to amount (mass) of cisplatin released by multiplying the concentration by the total volume of solution into which the agent released. The amount of cisplatin actually released was then divided by the amount of cisplatin initially loaded into the device, to get a percentage of cisplatin released as a function of time.\nA drug delivery device with incorporated cisplatin was fabricated in accordance with Example 1 above. The ends of the material were placed between two pieces of foam tape and further secured by applying glue to the ends in contact with the foam tape. The ends were then placed between the grips of a tensile tester machine (Instron 5848 Microtester) and the sample length between the grips was recorded. A water bath was placed under the sample arms, and the drug delivery device was submerged beneath 300 mL of phosphate-buffered saline (PBS). A magnetic stir bar was also added to the bath to ensure thorough mixing during the study. The Instron software was then programmed to extend the sample arms at a constant rate of 2 mm/s until a travel distance equivalent to the initial sample length was reached (corresponding to 100% strain). […] The percentage of cisplatin released into the surrounding aqueous environment was calculated using flameless atomic absorption spectroscopy, as described in Example 16. […]"}, "OE33 cells": {"system": "OE33 cells", "assay": "OE33 cell viability with cisplatin release aliquots (MTS Assay)", "assay_type": "cell-based", "details": "release aliquots incubated 72 hours with OE33 cells", "experimental": "Aliquots from release (FIG. 39) were incubated for 72 hours with OE33 cells, an oesophageal cell line. Cell viability from incubation of release aliquots over two hours were determined by MTS Assay, left. Cell viability at the 30-minute release at various strain magnitude are shown, right (p<0.05 for 30%, 100% when compared to 0%).\nCisplatin is used in the treatment of esophageal cancer. […] They used an esophageal cell line, OE33 (Sigma), to show the efficacy of cisplatin released from the tension-modulated drug delivery device, and that a dose-response curve can be generated using force and/or strain as the means to alter the dose. […] By altering the amount of force, the rate of cisplatin release can be controlled in order to provide a range of concentrations at fixed time points. The concentration of cisplatin can be either lower or higher than the IC50 value such that a similar curve may be created using force and/or strain on the x-axis, rather than, or in addition to, concentration.\nCisplatin can be loaded into these systems as described in Example 14. Cisplatin can be used to achieve dose-dependent tumor cell death, and also strain-dependent cell death. A strain-dependent release of cisplatin, a small hydrophilic drug molecule, can be seen in FIG. 39. Because cisplatin is a cytotoxic chemotherapeutic drug, the amount of cisplatin released correlates with cell viability (FIG. 40)."}, "OE33": {"system": "OE33", "details": "72 hours of incubation; read-out: IC50 of cisplatin with OE33; cited from earlier work"}, "[3]": {"assay": "Tension-triggered release of FITC-BSA from mechanoresponsive drug delivery device (fluorescence)", "assay_type": "physicochemical", "details": "PBS with 10% serum", "text": "The amount of fluorescein isothiocyanate-labeled bovine serum albumin (FITC-BSA) released from the drug delivery system into the surrounding aqueous environment was quantified through fluorescence spectrophotometry. The fluorescein isothiocyanate is a fluorophore that is maximally excited around 495 nm and maximally emits at around 520 nm. The fluorescence intensity emitted at 520 nm was used to construct a standard curve of fluorescence versus FITC-BSA concentration. Unknown FITC-BSA concentrations in the release medium were calculated from this standard curve. The concentration values were then converted to amount (mass) of FITC-BSA released by multiplying by the concentration values by the total volume of solution into which the protein released. The amount of FITC-BSA actually released was then divided by the amount of FITC-BSA initially loaded into the device, to get a percentage of protein released as a function of time. (FIGS. 19-21)\nA drug delivery device with incorporated fluorescein isothiocyanate-labeled bovine serum albumin (FITC-BSA) was fabricated in accordance with Example 1 above. The ends of the material were placed between two pieces of foam tape and further secured by applying glue to the ends in contact with the foam tape. The ends were then placed between the grips of a tensile tester machine (Instron 5848 Microtester) and the sample length between the grips was recorded. A water bath was placed under the sample arms, and the drug delivery device was submerged beneath 300 mL of phosphate-buffered saline (PBS) with 10% serum (fetal bovine serum). A magnetic stir bar was also added to the bath to ensure thorough mixing during the study. The Instron software was then programmed to extend the sample arms at a constant rate of 2 mm/s until a travel distance equivalent to the initial sample length was reached (corresponding to 100% strain). Once the device was stretched, aliquots of release medium were sampled at predetermined time points. The percentage of protein released into the surrounding aqueous environment was calculated using fluorescence spectrophotometry, as described in Example 13 above. Devices were also placed on the tensile tester, but in this instance they were not stretched (0% strain), to serve as control experiments. Release of the fluorescent protein from devices subjected to strain was rapid, and was achieved only under the application of strain. […] (FIG. 24)\nA drug delivery device with incorporated fluorescein isothiocyanate-labeled bovine serum albumin (FITC-BSA) was fabricated in accordance with Example 1 above. The coating was electrosprayed using a tip-to-collector distance of 15 cm. The ends of the material were placed between two pieces of foam tape and further secured by applying glue to the ends in contact with the foam tape. The ends were then placed between the grips of a tensile tester machine (Instron 5848 Microtester) and the sample length between the grips was recorded. A water bath was placed under the sample arms, and the drug delivery device was submerged beneath 300 mL of phosphate-buffered saline (PBS) with 10% serum (fetal bovine serum). A magnetic stir bar was also added to the bath to ensure thorough mixing during the study. The Instron software was then programmed to extend the sample arms at a constant rate of 2 mm/s until a travel distance equivalent to half of the initial sample length was reached (corresponding to 50% strain), or equivalent to the entire initial sample length was reached (corresponding to 100% strain). Once the device was stretched, aliquots of release medium were sampled at predetermined time points. The percentage of protein released into the surrounding aqueous environment was calculated using fluorescence spectrophotometry, as described in Example 13 above. Devices were also placed on the tensile tester, but in this instance they were not stretched (0% strain) to serve as a control experiment. […]"}, "[4]": {"system": "type I collagen in fibroblasts", "details": "cited from earlier work"}}, "note": "“Also recorded” adds a separate entry of the source.", "data": [{"compound": "CCc1c2c(nc3ccc(O)cc13)-c1cc3c(c(=O)n1C2)COC(=O)[C@]3(O)CC", "note": "[SN-38, 7-ethyl-10-hydroxycamptothecin]", "values": [{"measurement": "dependence of SN-38 release on strain", "setting": "[1]", "value": "strain-dependent"}, {"measurement": "release of SN-38 from device", "setting": "[1]; 0% strain", "value": "did not release appreciable amounts of drug"}, {"measurement": "release of SN-38 from device", "setting": "[1]; 30% strain", "value": "more moderate"}, {"measurement": "cell viability with released SN-38", "setting": "OE33, oesophageal cancer", "value": "deliver an efficacious amount of SN-38 to change the cell viability; also recorded: significant decreases in viability with increasing strain"}]}, {"compound": "N.N.[Cl][Pt][Cl]", "note": "[cisplatin, Cis-diamminedichloroplatinum(II)]", "values": [{"measurement": "release of cisplatin from device", "setting": "[2]; 100% strain", "value": "rapid release"}, {"measurement": "dependence of cisplatin release on strain", "setting": "[2]; cell media solution (RPMI) with fetal bovine serum (10% v/v)", "value": "strain-dependent; also recorded: tension-dependent"}, {"measurement": "release of cisplatin from device", "setting": "[2]; no applied tension (0% strain)", "value": "did not release appreciable amounts of drug; also recorded: minimal release"}, {"measurement": "cell viability with released cisplatin", "setting": "OE33 cells", "value": "deliver an efficacious amount of cisplatin to change the cell viability"}, {"measurement": "IC50", "setting": "OE33", "value": 2.17, "unit": "µM"}]}, {"compound": "FITC-BSA: Fluorescein isothiocyanate-labeled bovine serum albumin, model protein", "values": [{"measurement": "release of FITC-BSA from device", "setting": "[3]; 0% strain, dry coating, tip-to-collector distance 15 cm", "value": "did not release appreciable amounts of protein; also recorded: minimal release"}, {"measurement": "release of FITC-BSA from device", "setting": "[3]; 50% strain, dry coating, tip-to-collector distance 15 cm", "value": "more moderate; also recorded: modest release profile"}, {"measurement": "release of FITC-BSA from device", "setting": "[3]; 100% strain", "value": "rapid release"}, {"measurement": "release of FITC-BSA from device", "setting": "[3]; 100% strain, listed as protein", "value": "rapid drug release"}, {"measurement": "release of FITC-BSA from device", "setting": "[3]; 100% strain, dry coating, tip-to-collector distance 15 cm", "value": "most rapid; also recorded: rapid release"}, {"measurement": "release of FITC-BSA from device", "setting": "[3]; no applied tension (0% strain)", "value": "did not release appreciable amounts of protein; also recorded: minimal release"}, {"measurement": "release of FITC-BSA from device", "setting": "[3]; no applied tension (0% strain), listed as protein", "value": "did not release appreciable amounts of drug"}]}, {"compound": "TNF-α", "values": [{"measurement": "effect on synthesis of type I collagen", "setting": "[4]", "value": "inhibit synthesis of type I collagen"}]}]}
